Key:
Experiment in all cases: normalised response (% of control), CellTiter-Glo; higher = more viable cells (100 = DMSO, 0 = benzethonium chloride kill control)
Details in all cases: incubation time: 72 h
CAL-148 = system: CAL-148
Summary of the method: (§1)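 The table gives the normalised signal for a single concentration in each entry. Breast cancer cell lines were seeded (20 µl suspension) into 384-well plates holding compound at 5 concentrations in 10-fold steps over a compound-specific 10,000-fold range and incubated 72 h, then read for CellTox Green fluorescence (485/520 nm) and CellTiter-Glo luminescence. Normalisation on each plate used 0.1 % DMSO (100) and a positive kill control (0).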

MDA-MB-231 = system: MDA-MB-231
Summary of the method: as §1

HCC1143 = system: HCC1143
Summary of the method: as §1

HCC1937 = system: HCC1937
Summary of the method: as §1

SK-BR-3 = system: SK-BR-3
Summary of the method: as §1

CAL-120 = system: CAL-120
Summary of the method: as §1

Hs578T = system: Hs578T
Summary of the method: as §1

MCF-10A = system: MCF-10A
Summary of the method: as §1

CAL-51 = system: CAL-51
Summary of the method: as §1

MDA-MB-436 = system: MDA-MB-436
Summary of the method: as §1

HDQ-P1 = system: HDQ-P1
Summary of the method: as §1

HCC1599 = system: HCC1599
Summary of the method: as §1

CAL-85-1 = system: CAL-85-1
Summary of the method: as §1

MDA-MB-453 = system: MDA-MB-453
Summary of the method: as §1

MFM-223 = system: MFM-223
Summary of the method: as §1

BT-474 = system: BT-474
Summary of the method: as §1

MDA-MB-468 = system: MDA-MB-468
Summary of the method: as §1

BT-549 = system: BT-549
Summary of the method: as §1

DU-4475 = system: DU-4475
Summary of the method: as §1

| SMILES | normalised response (CAL-148) | normalised response (MDA-MB-231) | normalised response (HCC1143) | normalised response (HCC1937) | normalised response (SK-BR-3) | normalised response (CAL-120) | normalised response (Hs578T) | normalised response (MCF-10A) | normalised response (CAL-51) | normalised response (MDA-MB-436) | normalised response (HDQ-P1) | normalised response (HCC1599) | normalised response (CAL-85-1) | normalised response (MDA-MB-453) | normalised response (MFM-223) | normalised response (BT-474) | normalised response (MDA-MB-468) | normalised response (BT-549) | normalised response (DU-4475) |
| --- | --- | --- | --- | --- | --- | --- | --- | --- | --- | --- | --- | --- | --- | --- | --- | --- | --- | --- | --- |
| CC1=C(/C=C/C(C)=C/C=C/C(C)=C/C(=O)O)C(C)(C)CCC1 [Tretinoin] (1 nM) | 102% | 101% | 99.5% | 106% | 107% | 98.7% | 102% | 105% | 102% | 107% | 98.7% | 92% | 98.5% | 97.1% | 99.2% | 102% | 102% | 104% | 101% |
| N#Cc1ccc(C(c2ccc(C#N)cc2)n2cncn2)cc1 [Letrozole] (10 nM) | 99.3% | 101% | 97.4% | 97.6% | – | 95.7% | 103% | 108% | 126% | 97.1% | 97.8% | 98.2% | 99.9% | 102% | 103% | 103% | 99.6% | 95.3% | 98.2% |
| O=C(/C=C/c1cccnc1)NCCCCC1CCN(C(=O)c2ccccc2)CC1 [Daporinad] (1 nM) | 101% | 101% | 106% | 101% | 113% | 105% | 97.1% | 106% | 114% | 105% | 98.1% | 106% | 103% | 88.8% | 87.2% | 106% | 103% | 98% | 105% |
| Nc1nc(F)nc2c1ncn2[C@@H]1O[C@H](CO)[C@@H](O)[C@@H]1O [Fludarabine] (1 nM) | 97.2% | 99.9% | 110% | 99.3% | 111% | 98.4% | 110% | 113% | 93.1% | 120% | 103% | 102% | 101% | 112% | 109% | 111% | 103% | 101% | 99.8% |
| CCc1cncnc1N1CCN(Cc2nc3ccc(C(F)(F)F)cc3[nH]2)CC1 (1 nM) | 106% | 105% | 99.5% | 95.5% | 110% | 101% | 101% | 106% | 125% | 107% | 105% | 114% | 97.3% | 115% | 103% | 107% | 109% | 108% | 103% |
| CCc1cncnc1N1CCN(Cc2nc3ccc(C(F)(F)F)cc3[nH]2)CC1 (10 nM) | 115% | 108% | 111% | 98.1% | – | 101% | 107% | 113% | 111% | 109% | 98.8% | 98.7% | 99.1% | 110% | 103% | 108% | 101% | 93.2% | 104% |
| CC(=O)Nc1cccc(-n2c(=O)n(C3CC3)c(=O)c3c(Nc4ccc(I)cc4F)n(C)c(=O)c(C)c32)c1 [Trametinib] (0.25 nM) | 111% | 107% | 99.1% | 99.2% | 105% | 102% | 94.7% | 82.5% | 122% | 104% | 108% | 99.7% | 98.6% | 100% | 109% | 109% | 98.8% | 92.7% | 96.3% |
| Cc1cnc(NC(=O)Nc2cc(Br)c(C)cc2OC[C@@H]2CNCCO2)cn1 [Rabusertib] (0.1 nM) | 112% | 104% | 103% | 101% | 111% | 107% | 102% | 109% | 108% | 106% | 102% | 88.5% | 107% | 114% | 103% | 109% | 101% | 103% | 109% |
| C[C@H]1C[C@@H]2[C@H]([C@@H](O)C[C@@]3(C)[C@H]2CC[C@]3(O)C(=O)CO)[C@@]2(C)C=CC(=O)C=C12 [Methylprednisolone] (10 nM) | 111% | 135% | 104% | 101% | 109% | 96.2% | 103% | 113% | 116% | 110% | 96.8% | 93.7% | 112% | 108% | 112% | 127% | 99.8% | 101% | 108% |
| N#Cc1ccc(C(c2ccc(C#N)cc2)n2cncn2)cc1 [Letrozole] (1 nM) | 92% | 98.2% | 97.5% | 89.2% | 106% | 95.7% | 105% | 110% | 121% | 104% | 94.1% | 122% | 100% | 113% | 98.8% | 99.8% | 104% | 103% | 97.8% |
| C=CCc1cccc(/C=N/NC(=O)CN2CCN(Cc3ccccc3)CC2)c1O [PAC-1] (10 nM) | 107% | 100% | 100% | 103% | 107% | 94.6% | 103% | 112% | 108% | 98.3% | 98.9% | 112% | 100% | 104% | 110% | 98.4% | 111% | 97.7% | 106% |
| C=CC(=O)Nc1cc2c(Nc3ccc(F)c(Cl)c3)ncnc2cc1OCCCN1CCOCC1 [Canertinib] (1 nM) | 103% | 104% | 95.6% | 97.3% | 103% | 95.2% | 98.6% | 108% | 104% | 94.5% | 98.8% | 93.3% | 103% | 108% | 105% | 96.8% | 106% | 104% | 105% |
| Cc1cnc(NC(=O)Nc2cc(Br)c(C)cc2OC[C@@H]2CNCCO2)cn1 [Rabusertib] (1 nM) | 118% | 107% | 104% | 106% | – | 98.1% | 102% | 105% | 115% | 104% | 90.4% | 101% | 103% | 109% | 113% | 103% | 94.9% | 94.6% | 108% |
| COc1cc([C@@H]2c3cc4c(cc3[C@@H](O[C@@H]3O[C@@H]5CO[C@@H](c6cccs6)O[C@H]5[C@H](O)[C@H]3O)[C@H]3COC(=O)[C@H]23)OCO4)cc(OC)c1O [Teniposide] (10 nM) | 93.2% | 99.4% | 96.9% | 101% | – | 105% | 100% | 98.8% | 112% | 89.7% | 95.3% | 103% | 100% | 101% | 98% | 96.8% | 98.3% | 91.9% | 78.2% |
| Oc1ncc(N(CCCl)CCCl)c(O)n1 [Uracil mustard] (10 nM) | 107% | 105% | 105% | 99.7% | – | 102% | 107% | 106% | 80.1% | 105% | 95.1% | 87% | 95.2% | 88.8% | 103% | 103% | 90.3% | 97.2% | 97.7% |
| Nc1ccccc1NC(=O)c1ccc(CNC(=O)OCc2cccnc2)cc1 [Entinostat] (10 nM) | 104% | 98.6% | 101% | 99.5% | – | 94.2% | 102% | 109% | 94% | 102% | 97.5% | 95.7% | 107% | 94.6% | 103% | 100% | 98.4% | 96.8% | 101% |
| O=C(O)C1(C(=O)O)CCC1.[NH2-].[NH2-].[Pt+2] [Carboplatin] (10 nM) | 105% | 97% | 104% | 96.6% | – | 99.3% | 101% | 103% | 57.9% | 95.4% | 96.9% | 99.2% | 99.5% | 99.7% | 98.4% | 103% | 96.8% | 102% | 95.9% |
| CCCCC(=O)OCC(=O)[C@]1(O)Cc2c(O)c3c(c(O)c2[C@@H](O[C@H]2C[C@H](NC(=O)C(F)(F)F)[C@H](O)[C@H](C)O2)C1)C(=O)c1c(OC)cccc1C3=O [Valrubicin] (5 nM) | 105% | 97% | 102% | 102% | – | 94.6% | 102% | 106% | 60.1% | 101% | 95.5% | 96.5% | 95.6% | 103% | 105% | 97.6% | 93.1% | 91.1% | 101% |
| Cc1ccc(-c2cc(C(F)(F)F)nn2-c2ccc(S(N)(=O)=O)cc2)cc1 [Celecoxib] (10 nM) | 102% | 100% | 104% | 98.3% | – | 101% | 107% | 105% | 106% | 105% | 98.1% | 105% | 103% | 115% | 102% | 27.3% | 100% | 102% | 101% |
| Nc1ncn([C@H]2C[C@H](O)[C@@H](CO)O2)c(=O)n1 [Decitabine] (10 nM) | 95.4% | 102% | 103% | 94.6% | – | 103% | 96.3% | 98.5% | 124% | 97.3% | 98.8% | 102% | 90% | 97.7% | 103% | 104% | 96% | 93% | 105% |
| Nc1nc(F)nc2c1ncn2[C@@H]1O[C@H](CO)[C@@H](O)[C@@H]1O [Fludarabine] (10 nM) | 108% | 109% | 108% | 107% | – | 101% | 105% | 116% | 120% | 109% | 97% | 98.5% | 98.8% | 103% | 110% | 108% | 105% | 101% | 107% |

— the supplement of paper PMC4862054
